Consider 2 molecules from patent US10758552B2, “Pharmaceutical composition containing combinations of nicotinamide and 5-aminosalicylic acid for beneficially influencing the intestinal microbiota and/or treating gastrointestinal inflammation” (CONARIS RESEARCH INSTITUTE AG, priority 2013, dated 2020).

Assay [1] relates to dextrane sodium sulfate (DSS) colitis model in mice. In words: DSS colitis model in mice on Trp/Nia/NAM-free diet, histological scoring of the colon (Example 1). It counts as in vivo, C57BL/6J mice. To be noted: 1.5% DSS. On the procedure: In order to characterise the combined effect of 5-ASA and nicotinamide (NAM) in controlled release formulations for targeted delivery of both substances to the intestinal epithelium, a study was conducted in a dextrane sodium sulfate (DSS) colitis model in mice. In this study, a controlled release granule formulation for was tested in two different doses (30 mg/kg and 60 mg/kg). As a representative controlled release formulation for 5-ASA, 5-ASA granules ([…]®; Ferring Pharmaceuticals, Saint-Prex, Switzerland) were used both alone and in combination with the NAM granules. The controlled release formulation for NAM is a granulate of 25% nicotinamide, 70% dibasic calcium phosphate and 5% Povidone K30. The mean particle size was 234 μm. […] Filtering removed particles with a size of less than 355 μm. Control granules replaced NAM with an equivalent amount of dibasic calcium phosphate. Male C57BL/6J mice (specific pathogen free; Charles River Laboratories, Saint-Germain-sur-l'Arbresle, France) were taken into the test facility at >12 weeks of age and acclimatised for 1 week. The diet during the acclimatisation phase was diet A4, produced by SAFE (Scientific Animal Food and Engineering, Augy, France). […] The fixed doses for the other granules were calculated in an analogous fashion. […]

A further assay deals with murine DSS colitis model. Briefly: DSS colitis model in mice on normal diet, disease activity index (DAI) scoring (Example 2). Format: in vivo, C57BL/6J mice. Conditions: for % improvement of DAI vs DSS: granules in food, 2.5% DSS. The protocol:
In a second and much larger study, NAM and 5-ASA controlled release granules were used again in the murine DSS colitis model (see Example 1) to confirm the anti-inflammatory properties of NAM in one low dose (30 mg/kg) and to investigate two higher dosages (120 or 240 mg/kg) not administered in the first study. […] One very important difference to the first study described in Example 1 was the fact that the mice received normal food with normal levels of tryptophan, nicotinic acid and nicotinamide (SAFE diet A4; Scientific Animal Food and Engineering, Augy, France; see Example 1). Therefore, any effects observed in this second study cannot be due to supplementation of NAM to NA/NAM/Trp-starved mice. In the present study, the same DSS colitis model in C57BL/6J mice as in Example 1 was used, albeit with some minor modifications: 2.5% DSS were used to provide a stronger DSS challenge. The animals were acclimatised for one week to stabilise their microbiota, randomised into 9 different groups as illustrated in the following Table 1 and then kept for 10 days on the different diets (days -10 to -1) before inducing colitis by DSS in the drinking water (day 0-day 6) followed by a washout period with normal drinking water (day 6-day 9). All groups received 2.5% DSS. [table] [table] The 5-ASA granules were the same as in Example 1. Their 5-ASA content was 52% (one granule weighed 0.5 mg and contained 0.26 mg of 5-ASA). The 5-ASA granules were mixed with regular food for preparation of single-use food aliquots, which were stored frozen at -20° C. and thawed daily prior to feeding the mice. […] Therefore, the food was prepared with 2.88 g of granules per kg of food (for the 150 mg/kg dose) or 1.44 g/kg (for the 75 mg/kg dose). The NAM granules of the present example were produced by the same manufacturer and in a similar formulation (diameter: 0.355-0.500 mm; NAM content: 19.1%) as in Example 1. Three kinds of food were prepared in an analogous fashion to the food with 5-ASA granules as described above. […] Therefore, the food preparation for the three dose groups was performed as follows: 1.57 g of granules per kg of food for the 30 mg/kg dose group, 6.28 g of granules per kg of food for the 120 mg/kg dose group and 12.56 g of granules per kg of food for the 240 mg/kg dose group. For the control group, food without granules was processed in the same fashion as the granule-containing food preparations described above in order to exclude preparation artefacts. After euthanasia, the colon was analysed and the disease activity index (DAI; score 0-9) was scored using an adapted DAI system based on […] et al. 2005 (Am. J. Physiol. Gastrointest. Liver Physiol. 288:[…]). As no visible blood was observed, the blood scoring parameter according to […] et al. was changed to scoring the signal strength for occult blood in feces detected by the ColoScreen test (Helena Laboratories, Beaumont, Tex., USA). This signal strength scoring was performed independently by two investigators blinded to the identity of the samples. [table] All comparisons were analysed using the […] for two independent samples in the StatXact software (Cytel, Cambridge, Mass., USA).

In the case of `Nc1ccc(O)c(C(=O)O)c1` [5-ASA, 5-aminosalicylic acid], the “histological score of the colonic mucosa” value in assay [1] (5-ASA granules alone in diet, 150 mg/kg) is listed as “trend towards histological improvement”. The “stool consistency (diarrhea)” value is “hardly improved” in the assay with murine DSS colitis model (75 mg/kg 5-ASA alone) and “significant effect” in the assay with murine DSS colitis model (150 mg/kg 5-ASA alone). Also, the “% improvement of DAI vs DSS” value with murine DSS colitis model (75 mg/kg 5-ASA) was 28%; in the assay with murine DSS colitis model (150 mg/kg 5-ASA) it was 43%. Besides, the “mice having blood in the feces (occult blood)” value with murine DSS colitis model (150 mg/kg 5-ASA, control mice 100%, day of necropsy) is recorded as 53%. Moreover, the “macroscopic inflammation score, dose effect” value in the assay with murine DSS colitis model (5-ASA alone, 75 vs 150 mg/kg) is “no difference”. Besides, the “disease activity index (DAI), dose effect” value with murine DSS colitis model (doubling the dose of 5-ASA from 75 to 150 mg/kg) is on record as “stronger decrease of the DAI”.
As for `NC(=O)c1cccnc1` [NAM, nicotinamide], the “histological score of the colonic mucosa” value in assay [1] (NAM granules alone in diet, 30 or 60 mg/kg) is “trend towards histological improvement”. Further, the “% improvement of DAI vs DSS” value with murine DSS colitis model (30 mg/kg NAM) stood at 39%; in the assay on murine DSS colitis model (120 mg/kg NAM) it was 40%; in the assay on murine DSS colitis model (240 mg/kg NAM) it was 40%. Further, the “disease activity index (DAI), dose effect” value in the assay on murine DSS colitis model (NAM alone from 30 to 240 mg/kg) was “no dose response”. Further, in the assay with murine DSS colitis model (NAM alone, 30 to 240 mg/kg), the “macroscopic inflammation score, dose effect” value was “slight dose-dependent effect”. The “stool consistency (diarrhea)” value in the assay on murine DSS colitis model (different NAM doses alone) was “hardly improved”.
